Where only a bound is given, the exact number is not on record here.

Data on 39 molecules can be found in patent US20250326753A1, “DUAL CXCR4-BTK INHIBITORS” (X4 Pharmaceuticals, Inc., priority 2022, published 2025).

In the first test the target is T1, BTK (Bruton tyrosine kinase) (Homo sapiens, UniProt Q06187).
T1 construct: GST or His (the text leaves open which); purchased Reaction Biology Europe GmbH Lot 012,11; host or cells: Sf9 insect cells or E. coli (not resolved)
T1 sequence (Q06187 whole entry): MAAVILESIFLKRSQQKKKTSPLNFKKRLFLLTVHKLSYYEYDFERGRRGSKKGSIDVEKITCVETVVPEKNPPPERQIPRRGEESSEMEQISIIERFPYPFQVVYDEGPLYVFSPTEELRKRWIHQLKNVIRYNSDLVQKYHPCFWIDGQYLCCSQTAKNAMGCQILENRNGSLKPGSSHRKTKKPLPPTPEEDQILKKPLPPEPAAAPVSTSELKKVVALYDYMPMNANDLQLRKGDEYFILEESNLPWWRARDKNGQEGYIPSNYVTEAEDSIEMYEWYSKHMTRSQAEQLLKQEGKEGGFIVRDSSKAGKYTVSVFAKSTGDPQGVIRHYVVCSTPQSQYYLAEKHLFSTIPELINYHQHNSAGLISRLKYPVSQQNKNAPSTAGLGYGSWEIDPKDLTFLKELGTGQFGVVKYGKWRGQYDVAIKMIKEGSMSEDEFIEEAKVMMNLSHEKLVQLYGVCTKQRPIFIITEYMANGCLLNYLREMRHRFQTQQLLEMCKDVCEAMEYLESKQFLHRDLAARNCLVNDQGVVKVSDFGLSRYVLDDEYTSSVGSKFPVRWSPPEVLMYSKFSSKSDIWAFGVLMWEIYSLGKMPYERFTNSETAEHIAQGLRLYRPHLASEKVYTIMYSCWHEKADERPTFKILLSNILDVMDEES
As to the kind of experiment: BTK screening assay (33PanQinase Activity Assay, radiometric).
Details: not given
In kind it is biochemical. The protocol:
Inhibition of BTK activity was evaluated using a radiometric protein kinase assay (33PanQinase® Activity Assay) to measure the activity of BTK (Bruton tyrosine kinase).
Kinase assays were performed in 96-well ScintiPlates™ from Perkin Elmer (Boston, MA, USA) in a 50 μL reaction volume. The reaction cocktail was pipetted in four steps in the following order: 10 μL of non-radioactive ATP solution (in H2O); 25 μL of assay buffer/[γ-^33P]-ATP mixture; 5 μL of compound test sample in 10% DMSO; 10 μL of enzyme/substrate mixture.
BTK kinase was expressed in Sf9 insect cells or in E. coli as recombinant GST-fusion proteins or His-tagged proteins, either as full-length or enzymatically active fragments from human cDNAs, and purified by either GSH-affinity chromatography or immobilized metal. Purity was examined by SDS-PAGE/Coomassie staining, and identity confirmed by mass spectroscopy.
The reaction cocktails were incubated at 30° C. for 60 minutes. The reaction was stopped with 50 μL of 2% (v/v) H3PO4, plates were aspirated and washed two times with 200 μL 0.9% (w/v) NaCl. Incorporation of ^33Pi (counting of “cpm”) was determined with a microplate scintillation counter (Microbeta, Wallac).
The median value of the counts in wells containing assay buffer without enzyme, and without test compound was defined as “low control.” This value reflects unspecific binding of radioactivity to the plate in the absence of a protein kinase but in the presence of the substrate. The median value of the counts in wells containing assay buffer without test compound was defined as the “high control,” i.e. full activity in the absence of any inhibitor. The difference between high and low control was taken as 100% activity. Residual activity (in %) was calculated using the following formula: Res. Activity (%)=100×[(cpm of compound-low control)/(high control-low control)].
The fitting method used was a least-squares fit.
Take `Cc1cccnc1[C@H]1CCC[C@@H](c2ncccc2C)N1CCNC(=O)c1cc2c(-c3cccc(NC(=O)c4ccccc4)c3C)ncnc2[nH]1` [Compound I-74]: the IC50 (in general, the concentration that gives 50% inhibition) was greater than 2500 nM.

The test is the same for the next values; noted with them: Inhibition of BTK, radiometric 33PanQinase Activity Assay, 3 μM ATP, 10 concentrations in singlicate, top 10 μM; read-out: 33PanQinase ® Radiometric IC50.
Take `Cc1cc(-c2ncnc3[nH]c(C(=O)NCCCCN4[C@@H](c5ncccc5C)CCC[C@H]4c4ncccc4C)cc23)ccc1CNC(=O)c1ccccc1` [Compound I-47]: the IC50 is 1 to 100 nM. Consider `CCc1ccc(C(=O)NCc2ccc(-c3ncnc4[nH]c(C(=O)NCCCCN5[C@@H](c6ncccc6C)CCC[C@H]5c5ncccc5C)cc34)cc2C)cc1` [Compound I-48], for which the IC50 was 1 to 100 nM. Same read-out and setting: to `Cc1cc(-c2ncnc3[nH]c(C(=O)NCCCCN4[C@@H](c5ncccc5C)CCC[C@H]4c4ncccc4C)cc23)ccc1CNC(=O)c1ccc(F)cc1` [Compound I-49] belongs 1 to 100 nM; to `Cc1cc(-c2ncnc3[nH]c(C(=O)NCCCN4[C@@H](c5ncccc5C)CCC[C@H]4c4ncccc4C)cc23)ccc1CNC(=O)c1ccccc1` [Compound I-50], 1 to 100 nM.

In the case of `CCc1ccc(C(=O)NCc2ccc(-c3ncnc4[nH]c(C(=O)NCCCN5[C@@H](c6ncccc6C)CCC[C@H]5c5ncccc5C)cc34)cc2C)cc1` [Compound I-51], the IC50 lay within 1 to 100 nM.

Regarding `Cc1cc(-c2ncnc3[nH]c(C(=O)NCCCN4[C@@H](c5ncccc5C)CCC[C@H]4c4ncccc4C)cc23)ccc1CNC(=O)c1ccc(F)cc1` [Compound I-52], the 50% inhibitory concentration (IC50) was 1 to 100 nM. On the same count and under the same terms, to `CCOC1CN(C(=O)NCc2ccc(-c3ccnc(Nc4cnn(CCN5[C@@H](c6ncccc6C)CCC[C@H]5c5ncccc5C)c4)n3)cc2C)C1` [Compound I-53] belongs 1 to 100 nM; to `COC1CN(C(=O)NCc2ccc(-c3ccnc(Nc4cnn(CCCN5[C@@H](c6ncccc6C)CCC[C@H]5c5ncccc5C)c4)n3)cc2C)C1` [Compound I-54], 1 to 100 nM. Same read-out and setting: next, `CCOC1CN(C(=O)NCc2ccc(-c3ccnc(Nc4cnn(CCCN5[C@@H](c6ncccc6C)CCC[C@H]5c5ncccc5C)c4)n3)cc2C)C1` [Compound I-55]: 1 to 100 nM; `Cc1cc(-c2ccnc(Nc3cnn(CCCN4[C@@H](c5ncccc5C)CCC[C@H]4c4ncccc4C)c3)n2)ccc1CNC(=O)N1CC(OC(C)(C)C)C1` [Compound I-56]: 1 to 100 nM; `Cc1cc(-c2ccnc(Nc3cnn(CCCN4[C@@H](c5ncccc5C)CCC[C@H]4c4ncccc4C)c3)n2)ccc1CNC(=O)N1CC(OC(F)(F)F)C1` [Compound I-57]: 1 to 100 nM.

`Cc1ccc(Oc2ccc(C(=O)c3c[nH]c4ncnc(N[C@@H]5CC[C@@H](C(=O)NCCCCN6[C@@H](c7ncccc7C)CCC[C@H]6c6ncccc6C)OC5)c34)c(Cl)c2)cc1` [Compound I-58]: the IC50 fell in the range of 1 to 100 nM. The same measure, in the same setting: next, `Cc1cccc(Oc2ccc(C(=O)c3c[nH]c4ncnc(N[C@@H]5CC[C@@H](C(=O)NCCCCN6[C@@H](c7ncccc7C)CCC[C@H]6c6ncccc6C)OC5)c34)c(Cl)c2)c1` [Compound I-59]: 1 to 100 nM; `Cc1ccccc1Oc1ccc(C(=O)c2c[nH]c3ncnc(N[C@@H]4CC[C@@H](C(=O)NCCCCN5[C@@H](c6ncccc6C)CCC[C@H]5c5ncccc5C)OC4)c23)c(Cl)c1` [Compound I-60]: 1 to 100 nM; `Cc1cccnc1[C@H]1CCC[C@@H](c2ncccc2C)N1CCN1CCN(C(=O)c2ccc(-c3cc4c(-c5cccc(NC(=O)c6ccc(F)cc6)c5C)ncnc4[nH]3)cc2)CC1` [Compound I-67]: 1 to 100 nM.

Consider `Cc1cccnc1[C@H]1CCC[C@@H](c2ncccc2C)N1CCN1CCN(C(=O)c2ccc(-c3cc4c(-c5cccc(NC(=O)c6ccccc6F)c5C)ncnc4[nH]3)cc2)CC1` [Compound I-68], for which the IC50 lay within 1 to 100 nM. Still for that read-out and setting: next, `CC(=O)Nc1cccc(-c2ncnc3[nH]c(-c4ccc(C(=O)N5CCN(CCN6[C@@H](c7ncccc7C)CCC[C@H]6c6ncccc6C)CC5)cc4)cc23)c1C` [Compound I-69]: 1 to 100 nM; `Cc1cccnc1[C@H]1CCC[C@@H](c2ncccc2C)N1CCN1CCN(C(=O)c2ccc(-c3cc4c(-c5cccc(NC(=O)C(C)(C)C)c5C)ncnc4[nH]3)cc2)CC1` [Compound I-70]: 100 to 1000 nM. As to `Cc1cccnc1[C@H]1CCC[C@@H](c2ncccc2C)N1CCN1CCN(C(=O)[C@]23C[C@](c4cc5c(-c6cccc(NC(=O)c7ccccc7)c6C)ncnc5[nH]4)(C2)C3)CC1` [Compound I-71], the IC50 fell in the range of 1000 to 2500 nM.

For the molecule `Cc1cccnc1C1CCCCN1CCN1CCN(C(=O)c2ccc(-c3cc4c(-c5cccc(NC(=O)c6ccccc6)c5C)ncnc4[nH]3)cc2)CC1` (stereo not drawn) [Compound I-73], the IC50 was 100 to 1000 nM. The same measure, in the same setting: next, `Cc1cccnc1[C@H]1CCC[C@@H](c2ncccc2C)N1CCCNC(=O)c1cc2c(-c3cccc(NC(=O)c4ccccc4)c3C)ncnc2[nH]1` [Compound I-75]: greater than 2500 nM. `Cc1cccnc1[C@H]1CCC[C@@H](c2ncccc2C)N1CCCCNC(=O)c1cc2c(-c3cccc(NC(=O)c4ccccc4)c3C)ncnc2[nH]1` [Compound I-76]: the concentration for half-maximal inhibition (IC50) was greater than 2500 nM. Same read-out and setting: to `Cc1cccnc1[C@H]1CCC[C@@H](c2ncccc2C)N1CCNC1CN(C(=O)c2cc3c(-c4cccc(NC(=O)c5ccccc5)c4C)ncnc3[nH]2)C1` [Compound I-77] belongs greater than 2500 nM; to `Cc1cccnc1[C@H]1CCC[C@@H](c2ncccc2C)N1CCCNC1CN(C(=O)c2cc3c(-c4cccc(NC(=O)c5ccccc5)c4C)ncnc3[nH]2)C1` [Compound I-78], greater than 2500 nM; to `Cc1cccnc1[C@H]1CCC[C@@H](c2ncccc2C)N1CCCCNC1CN(C(=O)c2cc3c(-c4cccc(NC(=O)c5ccccc5)c4C)ncnc3[nH]2)C1` [Compound I-79], greater than 2500 nM. On to `Cc1cc(-c2ncnc3[nH]c(C(=O)NCCN4[C@@H](c5ncccc5C)CCC[C@H]4c4ncccc4C)cc23)ccc1CNC(=O)c1ccc(F)cc1` [Compound I-80], for which the IC50 was in the range of 100 to 1000 nM.

With `Cc1cc(-c2ncnc3[nH]c(C(=O)NCCN4[C@@H](c5ncccc5C)CCC[C@H]4c4ncccc4C)cc23)ccc1CNC(=O)c1cccc(F)c1` [Compound I-81], the IC50 was in the range of 100 to 1000 nM. Still for that read-out and setting: next, `Cc1cc(-c2ncnc3[nH]c(C(=O)NCCCN4[C@@H](c5ncccc5C)CCC[C@H]4c4ncccc4C)cc23)ccc1CNC(=O)c1cccc(F)c1` [Compound I-82]: 100 to 1000 nM; `Cc1cc(-c2ncnc3[nH]c(C(=O)NCCCCN4[C@@H](c5ncccc5C)CCC[C@H]4c4ncccc4C)cc23)ccc1CNC(=O)c1cccc(F)c1` [Compound I-83]: 100 to 1000 nM. As for `Cc1cc(-c2ncnc3[nH]c(C(=O)NCCN4[C@@H](c5ncccc5C)CCC[C@H]4c4ncccc4C)cc23)ccc1CNC(=O)c1cc(F)cc(F)c1` [Compound I-84], the IC50 is 100 to 1000 nM. Still for that read-out and setting: to `Cc1cc(-c2ncnc3[nH]c(C(=O)NCCCN4[C@@H](c5ncccc5C)CCC[C@H]4c4ncccc4C)cc23)ccc1CNC(=O)c1cc(F)cc(F)c1` [Compound I-85] belongs 100 to 1000 nM; to `Cc1cc(-c2ncnc3[nH]c(C(=O)NCCCCN4[C@@H](c5ncccc5C)CCC[C@H]4c4ncccc4C)cc23)ccc1CNC(=O)c1cc(F)cc(F)c1` [Compound I-86], 100 to 1000 nM; to `Cc1cccnc1[C@H]1CCC[C@@H](c2ncccc2C)N1CCNC(=O)c1cc2c(-c3cccc(NC(=O)c4ccc(F)cc4)c3C)ncnc2[nH]1` [Compound I-87], greater than 2500 nM. Still for that read-out and setting: to `Cc1cccnc1[C@H]1CCC[C@@H](c2ncccc2C)N1CCCNC(=O)c1cc2c(-c3cccc(NC(=O)c4ccc(F)cc4)c3C)ncnc2[nH]1` [Compound I-88] belongs greater than 2500 nM; to `Cc1cccnc1[C@H]1CCC[C@@H](c2ncccc2C)N1CCCCNC(=O)c1cc2c(-c3cccc(NC(=O)c4ccc(F)cc4)c3C)ncnc2[nH]1` [Compound I-89], greater than 2500 nM. Still for that read-out and setting: to `Cc1cccnc1[C@H]1CCC[C@@H](c2ncccc2C)N1CCNC1CN(C(=O)c2cc3c(-c4cccc(NC(=O)c5ccc(F)cc5)c4C)ncnc3[nH]2)C1` [Compound I-90] belongs greater than 2500 nM. As for `Cc1cccnc1[C@H]1CCC[C@@H](c2ncccc2C)N1CCCNC1CN(C(=O)c2cc3c(-c4cccc(NC(=O)c5ccc(F)cc5)c4C)ncnc3[nH]2)C1` [Compound I-91], the IC50 was greater than 2500 nM.

Regarding `Cc1cccnc1[C@H]1CCC[C@@H](c2ncccc2C)N1CCCCNC1CN(C(=O)c2cc3c(-c4cccc(NC(=O)c5ccc(F)cc5)c4C)ncnc3[nH]2)C1` [Compound I-92], the IC50 is 1000 to 2500 nM.
